Experimental data reported in ChEMBL document CHEMBL3885861, “Open TG-GATES”.

Species: Rattus norvegicus
Assay: Open TG-GATES - Regimen: Single
Assay type: toxicity, organism-based, Sprague-Dawley
Set-up: regimen Single, gender Male, age 6 weeks
Conditions: in vivo, ip, 100 mg/kg, route intraperitoneal injection, dose level Low; for APTT / Bas / Eos / Fbg / Hb / Ht / Lym / MCH / MCHC / MCV / Mono / Neu / PT / Plat / RBC / Ret / WBC: tissue Blood; for KIDNEY_L / KIDNEY_R / KIDNEY_TOTAL: tissue Kidney; for LIVER: tissue Liver; for A/G / ALP / ALT / AST / BUN / CRE / Ca / Cl / DBIL / GLC / IP / K / LDH / Na / PL / RALB / TBIL / TC / TG / TP / gamma-GTP: tissue Plasma

For N[C@H]1C(O)O[C@H](CO)[C@@H](O)[C@@H]1O (some centres not stated) [GLUCOSAMINE], the TERMINAL_BW (3 h) was 188.6 g, the APTT (3 h) was 16.4 s and the Bas (3 h) was 0.4%. The Eos (3 h) was 1%, the Fbg (3 h) was 267.2 mg/dL and the Hb (3 h) was 13.3 g/dL. For the same compound, the Ht (3 h) was 41.3%, the Lym (3 h) was 75% and the MCH (3 h) was 21.3 pg. It also gave an MCHC (3 h) of 32.1%, an MCV (3 h) of 66.4 fL and a Mono (3 h) of 3.2%. For the same compound, the Neu (3 h) was 19.6%, the PT (3 h) was 15.7 s and the Plat (3 h) was 114.1 x10_4/uL. For the same compound, the RBC (3 h) was 623.2 x10_4/ul, the Ret (3 h) was 9.9% and the WBC (3 h) was 83.2 x10_2/uL. For the same compound, the KIDNEY_L (3 h) was 0.8 g, the KIDNEY_R (3 h) was 0.8 g and the KIDNEY_TOTAL (3 h) was 1.6 g. It also gave an LIVER (3 h) of 8.3 g, an A/G (3 h) of 0.9 and an ALP (3 h) of 1288 IU/L. The ALT (3 h) was 42.2 IU/L, the AST (3 h) was 84.6 IU/L and the BUN (3 h) was 10.4 mg/dL. The CRE (3 h) was 0.2 mg/dL, the Ca (3 h) was 10.6 mg/dL and the Cl (3 h) was 108.4 meq/L. For the same compound, the DBIL (3 h) was 0.01 mg/dL, the GLC (3 h) was 171.6 mg/dL and the IP (3 h) was 9.2 mg/dL. The K (3 h) was 4 meq/L, the LDH (3 h) was 70 IU/L and the Na (3 h) was 143.4 meq/L. It also gave a PL (3 h) of 147.8 mg/dL, an RALB (3 h) of 2.5 g/dL and a TBIL (3 h) of 0.054 mg/dL. The TC (3 h) was 80.8 mg/dL, the TG (3 h) was 36.8 mg/dL and the TP (3 h) was 5.2 g/dL. The gamma-GTP (3 h) was 1 IU/L, the TERMINAL_BW (6 h) was 186.1 g and the APTT (6 h) was 17.1 s. For the same compound, the Bas (6 h) was 0%, the Eos (6 h) was 0.8% and the Fbg (6 h) was 259.4 mg/dL. It also gave a Hb (6 h) of 12.8 g/dL, a Ht (6 h) of 39.3% and a Lym (6 h) of 67%. It also gave an MCH (6 h) of 21.5 pg, an MCHC (6 h) of 32.7% and an MCV (6 h) of 65.9 fL. It also gave a Mono (6 h) of 3.6%, a Neu (6 h) of 27.6% and a PT (6 h) of 16.9 s. It also gave a Plat (6 h) of 114.6 x10_4/uL, an RBC (6 h) of 596 x10_4/ul and a Ret (6 h) of 9.9%. It also gave a WBC (6 h) of 82.3 x10_2/uL, a KIDNEY_L (6 h) of 0.8 g and a KIDNEY_R (6 h) of 0.8 g. It also gave a KIDNEY_TOTAL (6 h) of 1.7 g, an LIVER (6 h) of 7.7 g and an A/G (6 h) of 0.9. It also gave an ALP (6 h) of 1431.6 IU/L, an ALT (6 h) of 49.6 IU/L and an AST (6 h) of 94.2 IU/L. The BUN (6 h) was 8.8 mg/dL, the CRE (6 h) was 0.2 mg/dL and the Ca (6 h) was 10.1 mg/dL. It also gave a Cl (6 h) of 107.8 meq/L, a DBIL (6 h) of 0.006 mg/dL and a GLC (6 h) of 158 mg/dL. The IP (6 h) was 9.5 mg/dL, the K (6 h) was 3.9 meq/L and the LDH (6 h) was 58.6 IU/L. For the same compound, the Na (6 h) was 143.2 meq/L, the PL (6 h) was 144.2 mg/dL and the RALB (6 h) was 2.4 g/dL. It also gave a TBIL (6 h) of 0.054 mg/dL, a TC (6 h) of 80.2 mg/dL and a TG (6 h) of 40.2 mg/dL. It also gave a TP (6 h) of 5.1 g/dL, a gamma-GTP (6 h) of 1 IU/L and a TERMINAL_BW (9 h) of 185.8 g. It also gave an APTT (9 h) of 18.8 s, a Bas (9 h) of 0% and an Eos (9 h) of 0.8%. It also gave a Fbg (9 h) of 289.4 mg/dL, a Hb (9 h) of 12.9 g/dL and a Ht (9 h) of 39.8%. For the same compound, the Lym (9 h) was 68.4%, the MCH (9 h) was 21 pg and the MCHC (9 h) was 32.3%. For the same compound, the MCV (9 h) was 64.8 fL, the Mono (9 h) was 1.8% and the Neu (9 h) was 28.4%. The PT (9 h) was 16.1 s, the Plat (9 h) was 104 x10_4/uL and the RBC (9 h) was 614.4 x10_4/ul. For the same compound, the Ret (9 h) was 9.1%, the WBC (9 h) was 60.7 x10_2/uL and the KIDNEY_L (9 h) was 0.8 g. It also gave a KIDNEY_R (9 h) of 0.8 g, a KIDNEY_TOTAL (9 h) of 1.7 g and an LIVER (9 h) of 7.4 g. For the same compound, the A/G (9 h) was 0.9, the ALP (9 h) was 1454.4 IU/L and the ALT (9 h) was 39 IU/L. The AST (9 h) was 83.4 IU/L, the BUN (9 h) was 8 mg/dL and the CRE (9 h) was 0.2 mg/dL. It also gave a Ca (9 h) of 10.4 mg/dL, a Cl (9 h) of 107 meq/L and a DBIL (9 h) of 0.008 mg/dL. For the same compound, the GLC (9 h) was 180 mg/dL, the IP (9 h) was 10.4 mg/dL and the K (9 h) was 3.6 meq/L. For the same compound, the LDH (9 h) was 54.8 IU/L, the Na (9 h) was 144 meq/L and the PL (9 h) was 142.2 mg/dL. For the same compound, the RALB (9 h) was 2.5 g/dL, the TBIL (9 h) was 0.056 mg/dL and the TC (9 h) was 78.8 mg/dL. The TG (9 h) was 35.6 mg/dL, the TP (9 h) was 5.3 g/dL and the gamma-GTP (9 h) was 1 IU/L. It also gave a TERMINAL_BW (24 h) of 202.9 g, an APTT (24 h) of 18.1 s and a Bas (24 h) of 0.2%. It also gave an Eos (24 h) of 1.6%, a Fbg (24 h) of 253.2 mg/dL and a Hb (24 h) of 12.8 g/dL. The Ht (24 h) was 39.2%, the Lym (24 h) was 69.2% and the MCH (24 h) was 20.8 pg. It also gave an MCHC (24 h) of 32.7%, an MCV (24 h) of 63.6 fL and a Mono (24 h) of 3%. The Neu (24 h) was 25.2%, the PT (24 h) was 16.2 s and the Plat (24 h) was 105.9 x10_4/uL. For the same compound, the RBC (24 h) was 616.8 x10_4/ul, the Ret (24 h) was 8.6% and the WBC (24 h) was 93.3 x10_2/uL. The KIDNEY_L (24 h) was 0.9 g, the KIDNEY_R (24 h) was 0.9 g and the KIDNEY_TOTAL (24 h) was 1.7 g. It also gave an LIVER (24 h) of 9 g, an A/G (24 h) of 0.9 and an ALP (24 h) of 1735.2 IU/L. It also gave an ALT (24 h) of 51.8 IU/L, an AST (24 h) of 81.4 IU/L and a BUN (24 h) of 14.2 mg/dL. For the same compound, the CRE (24 h) was 0.2 mg/dL, the Ca (24 h) was 10.6 mg/dL and the Cl (24 h) was 107.4 meq/L. It also gave a DBIL (24 h) of 0.014 mg/dL, a GLC (24 h) of 181.6 mg/dL and an IP (24 h) of 8.5 mg/dL. For the same compound, the K (24 h) was 4.2 meq/L, the LDH (24 h) was 134.8 IU/L and the Na (24 h) was 143.8 meq/L. For the same compound, the PL (24 h) was 160.4 mg/dL, the RALB (24 h) was 2.6 g/dL and the TBIL (24 h) was 0.036 mg/dL. It also gave a TC (24 h) of 83.4 mg/dL, a TG (24 h) of 76.6 mg/dL and a TP (24 h) of 5.6 g/dL. It also gave a gamma-GTP (24 h) of 1 IU/L.
